The text below walks through data of PMC3237348, “Chemical Genomics Profiling of Environmental Chemical Modulation of Human Nuclear Receptors” (Environmental Health Perspectives, 2011).

One test addresses T1, ERα (Homo sapiens, UniProt P03372).
T1 construct: gene ESR1; GeneBLAzer bla HEK 293T reporter line (Invitrogen)
T1 sequence (P03372 311-547 limits assumed): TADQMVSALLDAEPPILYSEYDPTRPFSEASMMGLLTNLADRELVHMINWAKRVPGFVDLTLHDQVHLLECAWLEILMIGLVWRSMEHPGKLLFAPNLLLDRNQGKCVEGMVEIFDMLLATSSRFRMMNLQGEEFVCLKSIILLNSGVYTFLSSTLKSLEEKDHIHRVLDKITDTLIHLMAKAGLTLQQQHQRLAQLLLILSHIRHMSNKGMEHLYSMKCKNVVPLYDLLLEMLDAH
The experiment in a line: GAL-LBD beta-lactamase reporter qHTS, HEK […], […] nm ratio. The class given is cell-based. Background: Quantitative high-throughput screening tests each substance at several concentrations.

Test [1] addresses T2, PPARδ (Homo sapiens, UniProt Q03181).
T2 construct: gene PPARD; GeneBLAzer bla HEK 293T reporter line (Invitrogen)
T2 sequence (Q03181 139-441 limits assumed): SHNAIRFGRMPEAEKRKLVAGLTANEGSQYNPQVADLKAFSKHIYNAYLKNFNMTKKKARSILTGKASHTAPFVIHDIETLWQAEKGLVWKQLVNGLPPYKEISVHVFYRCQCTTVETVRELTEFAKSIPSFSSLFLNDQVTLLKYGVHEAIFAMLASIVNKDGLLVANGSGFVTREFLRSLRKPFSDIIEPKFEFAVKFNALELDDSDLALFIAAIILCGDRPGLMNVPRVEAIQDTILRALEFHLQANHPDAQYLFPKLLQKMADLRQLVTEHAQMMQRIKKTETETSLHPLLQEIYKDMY
The test is described as above. The format is cell-based.

In the next test the target is T3, RXRα (Homo sapiens, UniProt P19793).
T3 construct: gene RXRA; GeneBLAzer bla HEK 293T reporter line (Invitrogen)
T3 sequence (P19793 225-462 limits assumed): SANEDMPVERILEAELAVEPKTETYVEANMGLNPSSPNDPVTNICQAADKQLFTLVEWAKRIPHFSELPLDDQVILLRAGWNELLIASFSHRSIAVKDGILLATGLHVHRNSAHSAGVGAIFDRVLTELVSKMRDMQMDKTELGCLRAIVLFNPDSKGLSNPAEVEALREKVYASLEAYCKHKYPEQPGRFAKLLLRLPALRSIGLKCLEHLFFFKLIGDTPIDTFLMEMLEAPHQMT
The test is described as above. The class given is cell-based.

The target in test [2] is T4, PPARγ (Homo sapiens, UniProt P37231).
T4 construct: gene PPARG; GeneBLAzer bla HEK 293T reporter line (Invitrogen)
T4 sequence (P37231 238-505 limits assumed): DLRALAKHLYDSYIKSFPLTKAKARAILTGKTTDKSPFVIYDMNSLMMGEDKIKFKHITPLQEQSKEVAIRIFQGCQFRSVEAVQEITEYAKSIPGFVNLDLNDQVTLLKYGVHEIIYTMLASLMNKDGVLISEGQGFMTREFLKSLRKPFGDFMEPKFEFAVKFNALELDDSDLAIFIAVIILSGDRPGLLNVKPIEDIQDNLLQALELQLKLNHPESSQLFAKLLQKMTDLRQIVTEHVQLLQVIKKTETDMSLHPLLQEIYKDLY
The description is as above. The format is cell-based.

For the next test, the target named is T5, LXRβ (Homo sapiens, UniProt P55055).
T5 construct: gene NR1H2; GeneBLAzer bla HEK 293T reporter line (Invitrogen)
T5 sequence (P55055 222-460 limits assumed): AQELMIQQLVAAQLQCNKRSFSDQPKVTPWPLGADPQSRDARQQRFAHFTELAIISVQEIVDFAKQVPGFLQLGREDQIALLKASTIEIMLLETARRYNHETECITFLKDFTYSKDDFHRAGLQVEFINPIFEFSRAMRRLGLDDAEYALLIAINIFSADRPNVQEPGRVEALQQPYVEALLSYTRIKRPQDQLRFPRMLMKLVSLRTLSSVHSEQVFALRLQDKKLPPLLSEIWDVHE
The test is described as above. The format is cell-based. Conditions: agonist mode; […]-18 h at […] °C; unreliable.

In test [3] the target is T4, PPARγ. The description is as above. The class given is cell-based. This is another data set of the same source.
Test [4] deals with T4, PPARγ. Kind of test: cell-based. The following applies: with rosiglitazone 0.05 uM; antagonist mode, known agonist added; read-out: Control Titration EC50/IC50 (µM), antagonist mode. The arrangement: species or system HEK 293T; GeneBLAzer GAL4-LBD beta-lactamase reporter, antagonist mode with added agonist, 460/530 nm FRET ratio. The text has this:
(§1) β-Lactamase reporter gene assay and qHTS. […] All cell culture reagents were obtained from Invitrogen.

The target of test [5] is T2, PPARδ. The experiment in a line: cell-based. The following applies: with L165041 0.5 uM; antagonist mode, known agonist added; read-out: Control Titration EC50/IC50 (µM), antagonist mode. The arrangement: species or system HEK 293T; GeneBLAzer GAL4-LBD beta-lactamase reporter, antagonist mode with added agonist, 460/530 nm FRET ratio.
Text: as §1

Another test has as its target T6, GR (Homo sapiens, UniProt P04150).
T6 construct: gene NR3C1; GeneBLAzer bla HEK 293T reporter line (Invitrogen)
T6 sequence (P04150 521-777 limits assumed): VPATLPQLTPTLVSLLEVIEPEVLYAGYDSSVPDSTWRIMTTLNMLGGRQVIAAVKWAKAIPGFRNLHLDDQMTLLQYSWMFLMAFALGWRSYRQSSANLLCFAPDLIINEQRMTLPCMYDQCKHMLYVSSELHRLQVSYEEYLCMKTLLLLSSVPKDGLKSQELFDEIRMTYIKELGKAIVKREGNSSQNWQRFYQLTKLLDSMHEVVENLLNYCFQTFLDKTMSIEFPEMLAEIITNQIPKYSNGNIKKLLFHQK
The experiment in a line: GAL-LBD beta-lactamase reporter qHTS, HEK […], […] nm ratio. The class given is cell-based.

Test [6] has as its target T2, PPARδ. The experiment in a line: cell-based. The arrangement: species or system HEK 293T; GeneBLAzer GAL4-LBD beta-lactamase reporter, agonist mode, 460/530 nm FRET ratio. Conditions: agonist mode; read-out: Control Titration EC50/IC50 (µM), agonist mode.
Text: as §1

On to `CCCc1c(-c2ccc(O)cc2)nn(-c2ccc(O)cc2)c1-c1ccc(O)cc1` [1,3,5-tris(4-Hydroxyphenyl)-4-propyl-1H-pyrazole], for which the EC50 on ERα was 100 nM.
Consider `CCCCCCCCCCCCCCC(Br)C(=O)O` (centres unmarked) [2-Bromohexadecanoic acid], for which the EC50 at PPARδ [1] was 28200 nM.
Take `CC1(C)CCC(C)(C)c2cc(C(=O)Nc3ccc(C(=O)O)cc3)ccc21` [AM-580]: the EC50 on RXRα was 620 nM.
On to `CC(C)(c1ccc(OCC2CO2)cc1)c1ccc(OCC2CO2)cc1` (centres unmarked) [BADGE], for which the IC50 on PPARγ [2] (antagonist mode, nonsaturating agonist pre-added, […]-18 h at […] °C) amounted to 50100 nM.
Consider `CC(C)CCC[C@@H](C)[C@H]1CC[C@H]2[C@@H]3CC=C4C[C@@H](O)CC[C@]4(C)[C@H]3CC[C@]12C` [Cholesterol], for which the EC50 at LXRβ is 39810 nM.
With `CC(C)C[C@H](NC(=O)OCC1c2ccccc2-c2ccccc21)C(=O)O` [Fmoc-l-leucine], the EC50 on PPARγ [3] is 11200 nM.
As to `O=C(Nc1ccccc1)c1cc([N+](=O)[O-])ccc1Cl` [GW9662], the IC50 at PPARγ [2] was determined as 12600 nM; on PPARγ [4] it was 0.011 µM.
Take `CC(C)c1ccc2c(c1)c(SC(C)(C)C)c(CC(C)(C)C(=O)O)n2Cc1ccc(Cl)cc1` [MK886]: at PPARδ [5], the IC50 turned out to be 54 µM.
Turning to `O=S(=O)(c1ccccc1)N(CC(F)(F)F)c1ccc(C(O)(C(F)(F)F)C(F)(F)F)cc1` [TO-901317], the EC50 at LXRβ was 250 nM.
In the case of `C/C(=C\c1ccc(C(=O)O)cc1)c1ccc2c(c1)C(C)(C)CCC2(C)C` [TTNPB, (E)-4-[2-(5,6,7,8-tetrahydro-5,5,8,8-tetramethyl-2-naphthylenyl)-1-propenyl] benzoic acid], on RXRα, the EC50 stood at 710 nM.
With `C[C@]12C=CC(=O)C=C1CC[C@H]1[C@@H]3C[C@@H](O)[C@](O)(C(=O)CO)[C@@]3(C)C[C@H](O)[C@@]12F` [Triamcinolone], on GR, the EC50 stood at 110 nM.
Regarding `CCCc1c(OCCCOc2ccc(OCC(=O)O)cc2)ccc(C(C)=O)c1O` [l-165,041], the values for the EC50 on PPARδ [6] and at PPARδ [1] were 0.036 ± 0.006 µM and 90 nM, respectively.
